Source: patent publication US5591741A, “Fungicidal spiroheterocyclic derivatives” (American Cyanamid Company, priority 1993, dated 1997)

What was measured:
[1] = system: Erysiphe graminis f.sp. hordei; assay: Activity against barley powdery mildew, direct therapeutic (EGT); assay type: in vivo; conditions: direct therapeutic foliar spray, 600 ppm, up to 7 days
Protocol: (e) Activity against barley powdery mildew (Erysiphe graminis f.sp. hordei; EGT) The test is a direct therapeutic foliar spray. Leaves of barley seedlings, (cv. Golden Promise) at the single leaf stage are inoculated by dusting with mildew conidia one day prior to treatment with the test compound. The inoculated plants are kept overnight at glasshouse ambient temperature (18° C.) and humidity (40%) prior to treatment. The plants are sprayed with the test compound at a dosage of 600 ppm using an automated sprayline as described under (a). After drying, plants are returned to a compartment at 18° C. and 40% humidity for up to 7 days. Assessment is based on the percentage of leaf area covered by sporulation compared with that on leaves of control plants. The extent of disease control in all the above tests is expressed as a rating compared with either an untreated control or a diluent-sprayed-control, according to the criteria: […]

[2] = system: Alternaria solani; assay: Activity against tomato early blight (AS); assay type: in vivo; conditions: Table VI; tomato seedlings, contact prophylactic foliar spray, 4 days
Protocol: b) Activity against tomato early blight (Alternaria solani; AS) This test measures the contact prophylactic activity of test compounds applied as a foliar spray. Tomato seedlings (cv Outdoor Girl) are grown to the stage at which the second true leaf is expanded. The plants are treated using an automated sprayline as described under (a). Test compounds are applied as solutions or suspensions in a mixture of acetone and water (50:50 v/v) containing 0.04% surfactant ("TWEEN 20"--Trade Mark). After drying the plants are kept for 24 hours in a glasshouse at 20° C. and 40% R.H., followed by inoculation of the leaf upper surfaces with a suspension of A. solani conidia containing 10^4 spores/ml. For 4 days after inoculation plants are kept moist in a humidity compartment at 21° C. Disease is assessed 4 days after inoculation, based on the percentage of leaf surface area covered by lesions when compared with control plants. The extent of disease control in all the above tests is expressed as a rating compared with either an untreated control or a diluent-sprayed-control, according to the criteria: […]

[3] = system: Botrytis cinerea; assay: Direct protectant activity against broad bean grey mould (BCB); assay type: in vivo; conditions: direct protectant foliar spray, 600 ppm, 4 days
Protocol: (c) Direct protectant activity against broad bean grey mould (Botrytis cinerea; BCB) The test is a direct protectant foliar spray. The upper surfaces of leaves of broad bean plants with two leaf pairs (cv The Sutton) are sprayed with the test compound at a dosage of 600 ppm using an automated sprayline as described under (a). 24 hours after spraying the leaves are inoculated with an aqueous suspension containing 10^6 conidia/ml. For 4 days after inoculation plants are kept in a high humidity compartment at 22° C. Disease is assessed 4 days after inoculation, based on the percentage of leaf surface area covered by lesions. The extent of disease control in all the above tests is expressed as a rating compared with either an untreated control or a diluent-sprayed-control, according to the criteria: […]

[4] = system: Phytophthora infestans; assay type: in vivo; conditions: tomato, direct protectant foliar spray
[5] = system: Venturia inaequalis; assay: Activity against apple scab in-vitro (VII); assay type: cell-based; conditions: 10 ppm, 10 days, 20° C., mycelial growth
Protocol: (j) Activity against apple scab in-vitro (Venturia inaequalis: VII) This test measures the in-vitro activity of compounds against V. inaequalis that causes apple scab. The test compound in acetone is added into 4 ml aliquots of half strength Potato Dextrose Broth dispensed in 25-compartment petri dishes to give final concentrations of 10 ppm. The fungal inoculum consists of mycelial fragments and spores of V. inaequalis grown on malt agar and added to the broth to provide 5×10^4 propagules/ml broth. Petri dishes are incubated at 20° C. for 10 days until the assessment of mycelial growth. The extent of disease control in all the above tests is expressed as a rating compared with either an untreated control or a diluent-sprayed-control, according to the criteria: […]

[6] = system: Rhizoctonia solani; assay: Activity against Rhizoctonia in-vitro (RSI); assay type: cell-based; conditions: 10 ppm, 10 days, 20° C., mycelial growth
Protocol: (i) Activity against Rhizoctonia in-vitro (Rhizoctonia solani: RSI) This test measures the in-vitro activity of compounds against R. solani that causes stem and root rots. The test compound in acetone is added into 4 ml aliquots of half strength Potato Dextrose Broth dispensed in 25-compartment petri dishes to give final concentrations of 10 ppm. The fungal inoculum consists of mycelial fragments of R. solani growth in half strength PDB in shaken culture flasks and added to the broth to provide 5×10^4 fragments/ml broth. Petri dishes are incubated at 20° C. for 10 days until the assessment of mycelial growth. The extent of disease control in all the above tests is expressed as a rating compared with either an untreated control or a diluent-sprayed-control, according to the criteria: […]

[7] = system: Pseudocercosporella herpotrichoides; assay: Activity against wheat eyespot in-vitro (PHI); assay type: cell-based; conditions: 10 ppm, 10 days, 20° C., mycelial growth
Protocol: (h) Activity against wheat eyespot in-vitro (Pseudocercosporella herpotrichoides; pHI) This test measures the in vitro activity of compounds against the fungus causing wheat eyespot. The test compound is dissolved or suspended in acetone and is added into 4 ml aliquots of half strength Potato Dextrose Broth (PDB) dispended in 25-compartment petri dishes to give a final concentration of 10ppm. The fungal inoculum consists of mycelial fragments of P. herpotrichoides grown in half strength PDB in shaken flasks and added to the broth to provide 5×10^4 fragments/ml broth. Petri dishes are incubated at 20° C. for 10 days until the assessment of mycelial growth. The extent of disease control in all the above tests is expressed as a rating compared with either an untreated control or a diluent-sprayed-control, according to the criteria: […]

[8] = system: Pyricularia oryzae; assay type: in vivo; conditions: rice seedlings, direct therapeutic foliar spray, 600 ppm, 4-5 days
[9] = system: Plasmopara viticola; assay: Antisporulant activity against vine downy mildew (PVA); assay type: in vivo; conditions: vine leaves, antisporulant foliar spray, 600 ppm, 750 l/ha
Protocol: (a) Antisporulant activity against vine downy mildew (Plasmopara viticola; PVA) The test is a direct antisporulant one using a foliar spray. The lower surfaces of leaves of whole vine plants (cv Cabernet Sauvignon), approximately 8 cm high, are inoculated by spraying with an aqueous suspension containing 5×10^4 zoosporangia/ml. The inoculated plants are kept for 24 hours at 21° C. in a high humidity compartment, then 24 hours at glasshouse ambient temperature and humidity. Infected leaves are sprayed on their lower surfaces with a solution of active material in 1:1 water/acetone containing 0.04% "TWEEN 20" (Trade Mark; a polyoxyethylene sorbitan ester surfactant). Plants are treated using an automated sprayline with an atomising nozzle. The concentration of the compound is 600 ppm, and the spray volume is 750 l/ha. After spraying, the plants are returned to normal glasshouse conditions for 96 hours and are then transferred to the high humidity compartment for 24 hours to induce sporulation. Assessment is based on the percentage of the leaf area covered by sporulation compared with that on control leaves. The extent of disease control in all the above tests is expressed as a rating compared with either an untreated control or a diluent-sprayed-control, according to the criteria: […]

[10] = system: Leptosphaeria nodorum; assay: Activity against wheat leafspot (LN); assay type: in vivo; conditions: direct therapeutic foliar spray, 600 ppm, 6-8 days
Protocol: (d) Activity against wheat leafspot (Leptosphaeria nodorum; LN.) The test is a direct therapeutic foliar spray. Leaves of wheat plants (cv Norman), at the single leaf stage, are inoculated by spraying with an aqueous suspension containing 1.5×10^6 conidia/ml. The inoculated plants are kept for 24 hours in a high humidity compartment prior to treatment. The plants are sprayed with a solution of the test compound at a dosage of 600 ppm using an automated sprayline as described under (a). After drying, the plants are kept for 6-8 days at 22° C. and moderate humidity (70%). Assessment is based on the density of lesions per leaf compared with that on leaves of control plants. The extent of disease control in all the above tests is expressed as a rating compared with either an untreated control or a diluent-sprayed-control, according to the criteria: […]

[11] = system: Erysiphe graminis f.sp. hordei; assay: Direct protectant activity against barley powdery mildew (EGP); assay type: in vivo; conditions: direct protectant foliar spray, 8 days
Protocol: (f) Direct protectant activity against barley powdery mildew (Erysiphe graminis f.sp. hordei; EGP) The test is a direct protectant foliar spray. Leaves of barley seedlings (cv Golden Promise) at the single leaf stage are sprayed with the test compound as described under (a). After drying, the plants are kept for 24 hours in a glasshouse at 18° C. and 40% R.H. Then the plants are inoculated by dusting with mildew conidia and kept at 18° C. and 40% R.H. for 8 days. Assessment is based on the percentage of leaf area covered by sporulation compared with that on leaves of control plants. The extent of disease control in all the above tests is expressed as a rating compared with either an untreated control or a diluent-sprayed-control, according to the criteria: […]

SMILES	disease control rating EGT [1]	disease control rating AS [2]	disease control rating BCB [3]	disease control rating PIP [4]	disease control rating VII [5]	disease control rating RSI [6]	disease control rating PHI [7]	disease control rating PO [8]	disease control rating PVA [9]	disease control rating LN [10]	disease control rating EGP [11]
CC(C)(C)C1CCC2(CC1)CC(NCc1ccc(Cl)cc1)CO2 (centres unmarked) [Compound 1]	2 (greater than 80% disease control)	0 (less than 50% disease control)	0 (less than 50% disease control)	0 (less than 50% disease control)	0 (less than 50% disease control)	0 (less than 50% disease control)	1 (about 50-80% disease control)	0 (less than 50% disease control)	0 (less than 50% disease control)	0 (less than 50% disease control)	–
CCCCCCNC1COC2(CCC(C(C)(C)C)CC2)C1 (centres unmarked) [Compound 2]	2 (greater than 80% disease control)	0 (less than 50% disease control)	0 (less than 50% disease control)	0 (less than 50% disease control)	0 (less than 50% disease control)	1 (about 50-80% disease control)	1 (about 50-80% disease control)	0 (less than 50% disease control)	0 (less than 50% disease control)	0 (less than 50% disease control)	–
CC1CN(C2COC3(CCC(C(C)(C)C)CC3)C2)CC(C)O1 (centres unmarked) [Compound 3]	1 (about 50-80% disease control)	0 (less than 50% disease control)	0 (less than 50% disease control)	0 (less than 50% disease control)	2 (greater than 80% disease control)	0 (less than 50% disease control)	2 (greater than 80% disease control)	0 (less than 50% disease control)	0 (less than 50% disease control)	0 (less than 50% disease control)	–
CC1CCN(C2COC3(CCC(C(C)(C)CC(C)(C)C)CC3)C2)CC1 (centres unmarked) [Compound 135]	2 (greater than 80% disease control)	0 (less than 50% disease control)	0 (less than 50% disease control)	–	1 (about 50-80% disease control)	2 (greater than 80% disease control)	2 (greater than 80% disease control)	0 (less than 50% disease control)	0 (less than 50% disease control)	1 (about 50-80% disease control)	2 (greater than 80% disease control)
CC1CC(C)CN(C2COC3(CCC(C(C)(C)CC(C)(C)C)CC3)C2)C1 (centres unmarked) [Compound 136]	2 (greater than 80% disease control)	0 (less than 50% disease control)	0 (less than 50% disease control)	–	0 (less than 50% disease control)	2 (greater than 80% disease control)	2 (greater than 80% disease control)	0 (less than 50% disease control)	0 (less than 50% disease control)	0 (less than 50% disease control)	2 (greater than 80% disease control)
